Entries after “also recorded” stand apart in the source; their conditions may differ. Where two headings read alike, the source gives them in different places.
Key:
[1] = system: P. falciparum IPC4912 (artemisinin-resistant, K13 I543T); assay: SYBR Green I assay, IC50, strain IPC4912; type: cell-based, Plasmodium falciparum; conditions: for Resistance Index RIc = IC50 (IPC4912)/IC50 (3D7): IPC4912 vs 3D7; for IC50: Plasmodium falciparum, read-out: P. falciparum IC50 ± SD, IPC4912
Experimental: Staging and parasitaemia were determined by light microscopy of Giemsa-stained thin blood smears. Anti-malarial activity was determined using the SYBR Green I assay, as previously described. Briefly, early ring stage parasites (> 80% of rings) were challenged with a 1:3 serial dilution of each compound, in concentrations ranging from 10,000–0.169 nM. Fluorescence intensity was measured with a multi-mode microplate reader (Triad, Dynex Technologies), with excitation and emission wavelengths of 485 and 535 nm, respectively, and analysed by nonlinear regression using GraphPad Prism to determine IC50 values.

[2] = system: P. falciparum IPC5202 (artemisinin-resistant, K13 R539T); assay: SYBR Green I assay, IC50, strain IPC5202; type: cell-based, Plasmodium falciparum; conditions: for Resistance Index RIb = IC50 (IPC5202)/IC50 (3D7): IPC5202 vs 3D7; for IC50: Plasmodium falciparum, read-out: P. falciparum IC50 ± SD, IPC5202, strain IPC5202
Experimental: (§1) Staging and parasitaemia were determined by light microscopy of Giemsa-stained thin blood smears. Anti-malarial activity was determined using the SYBR Green I assay, as previously described.

[3] = system: Plasmodium berghei NK65; assay: Peters' 4-day suppressive test in Swiss albino mice; type: in vivo; conditions: for in vivo outcome against P. berghei in words / inhibition in vivo at 50 mg/kg/day / Mean parasitaemia ± SD, Day 5 / Mean parasitaemia ± SD, Day 7 / Mean parasitaemia ± SD, Day 10: 50 mg/kg/day oral for 4 days; for in vivo outcome against P. berghei in words: followed to day 10; for inhibition in vivo at 50 mg/kg/day: Plasmodium berghei; for inhibition in vivo at 50 mg/kg/day / Mean parasitaemia ± SD, Day 5 / Mean parasitaemia ± SD, Day 7 / Mean parasitaemia ± SD, Day 10: mice
Experimental: In vivo tests were performed following the Guidelines for Ethical Conduct in The Care and Use of Animals of the Federal University of Rio Grande do Norte—Brazil (CEUA/UFRN/46/2013). Evaluation of anti-malarial activity in vivo was carried out using the Peters’ 4-day suppressive test, with modifications, as previously described. Swiss albino mice were infected with Plasmodium berghei NK65 and randomly allocated to groups of five animals. Animals were treated with 50 mg/kg/day of each of the tested compounds (dissolved in PBS containing 1% DMSO), administrated orally, for four consecutive days. The control group was treated with a solution of PBS/1% DMSO. On days 5 (D5), 7 (D7) and 10 (D10) after parasite inoculation, tail blood smears were Giemsa-stained and examined microscopically to estimate parasitaemia. Acute toxicity testing was carried out to determine adverse effects due to compounds (including weight loss, hair appearance, skin wounds and behavioural changes), and recorded daily.

[4] = system: V79 (Chinese hamster lung) cells; conditions: for LD50 V79: Chinese hamster, 24 h; for Selectivity index LD50 (V79)/IC50 (3D7): V79 vs 3D7; for Selectivity index LD50 (V79)/IC50 (Dd2): V79 vs Dd2; for Selectivity index LD50 (V79)/IC50 (IPC4912): V79 vs IPC4912; for Selectivity index LD50 (V79)/IC50 (IPC5202): V79 vs IPC5202
Experimental: (§2) Cytotoxicity was assessed on the mammalian cell lines HepG2-A16 (human hepatoma) and V79 (Chinese hamster lung), using a MTT based assay, as previously described. […] V79 and HepG2 cell lines were incubated for 24 and 48 h, respectively (media changed at 24 h intervals). Absorbance was read at 570 nm on a multi-mode microplate reader (Triad, Dynex Technologies), to produce a log dose-dependence curve. The LD50 value for each compound was estimated by non-linear interpolation of the dose-dependence curve (GraphPad Software).

[5] = system: HepG2-A16 (human hepatoma) cells; conditions: for Selectivity index LD50 (HepG2)/IC50 (3D7): HepG2 vs 3D7; for Selectivity index LD50 (HepG2)/IC50 (Dd2): HepG2 vs Dd2; for Selectivity index LD50 (HepG2)/IC50 (IPC4912): HepG2 vs IPC4912; for Selectivity index LD50 (HepG2)/IC50 (IPC5202): HepG2 vs IPC5202; for LD50 HepG2: human, 48 h
Experimental: as §2

[6] = system: P. falciparum 3D7 (chloroquine and mefloquine sensitive); assay: SYBR Green I assay, IC50, strain 3D7; type: cell-based, Plasmodium falciparum; conditions: Plasmodium falciparum, 3D7, read-out: P. falciparum IC50 ± SD, 3D7
Experimental: as §1

[7] = system: P. falciparum Dd2 (chloroquine-resistant, mefloquine-resistant); assay: SYBR Green I assay, IC50, strain Dd2; type: cell-based, Plasmodium falciparum
Experimental: as §1

[8] = 120 h, day 5, vs control group, read-out: % inhibition of parasite growth, Day 5 (converted)
[9] = 168 h, day 7, vs control group, read-out: % inhibition of parasite growth, Day 7 (converted)
[10] = 240 h, day 10, vs control group, read-out: % inhibition of parasite growth, Day 10 (converted)

SMILES | Resistance Index RIc = IC50 (IPC4912)/IC50 (3D7) [1] | IC50 [1] [nM] | Resistance Index RIb = IC50 (IPC5202)/IC50 (3D7) [2] | IC50 [2] [nM] | in vivo outcome against P. berghei in words [3] | inhibition in vivo at 50 mg/kg/day [3, 8] [%] | inhibition in vivo at 50 mg/kg/day [3, 9] [%] | inhibition in vivo at 50 mg/kg/day [3, 10] [%] | Mean parasitaemia ± SD, Day 5 [3] [%] | Mean parasitaemia ± SD, Day 7 ([3]; day 7) [%] | Mean parasitaemia ± SD, Day 10 [3] [%] | LD50 V79 [4] [mM] | Selectivity index LD50 (V79)/IC50 (3D7) [4] | Selectivity index LD50 (V79)/IC50 (Dd2) [4] | Selectivity index LD50 (V79)/IC50 (IPC4912) [4] | Selectivity index LD50 (V79)/IC50 (IPC5202) [4] | Selectivity index LD50 (HepG2)/IC50 (3D7) [5] | Selectivity index LD50 (HepG2)/IC50 (Dd2) [5] | Selectivity index LD50 (HepG2)/IC50 (IPC4912) [5] | Selectivity index LD50 (HepG2)/IC50 (IPC5202) [5] | other results
C1C2CC3CC1CC(C2)C31OOC2(CCC(Nc3nnn[nH]3)CC2)O1 (stereo not shown) [LC136] | 2.43 | 6.8 ± 2.3 | 2.18 | 6.1 ± 1.9 | complete suppression of parasitaemia; also recorded: total suppression of parasitaemia from day 5 to day 10; also recorded: totally suppressed P. berghei parasitaemia | 100 | 100 | 100 | 0 | 0 | 0 | > 1 | 357142.8 | 400000.0 | 147058.8 | 163934.4 | 357142.8 | 400000.0 | 147058.8 | 163934.4 | LD50 HepG2 [5]: 1.0 mM
O=S1(=O)N=C(NCC2CCC3(CC2)OOC2(O3)C3CC4CC(C3)CC2C4)c2ccccc21 (stereo not shown) [LC130] | 0.10 | 2.4 ± 1.6 | 0.35 | 8.2 ± 1.9 | recrudescence occurred on day 7 | 100 | 60.8 | 76.7 | 0 | 1.4 ± 0.94 | 1.32 ± 0.24 | > 1 | 42918.4 | 40322.6 | 416666.6 | 121951.2 | 42918.4 | 40322.6 | 416666.6 | 121951.2 | mice parasitemic, day 7 ([3]; groups of five mice, 50 mg/kg/day oral, day 7): 2/5; LD50 HepG2 [5]: 1.0 mM
Cn1nnc(NCC2CCC3(CC2)OOC2(O3)C3CC4CC(C3)CC2C4)n1 (stereo not shown) [LC131] | 1.66 | 4.8 ± 1.2 | 1.17 | 3.4 ± 2.1 | complete suppression of parasitaemia; also recorded: total suppression of parasitaemia from day 5 to day 10; also recorded: totally suppressed P. berghei parasitaemia | 100 | 100 | 100 | 0 | 0 | 0 | > 1 | 344827.5 | 476190.5 | 208333.3 | 294117.6 | 344827.5 | 476190.5 | 208333.3 | 294117.6 | LD50 HepG2 [5]: 1.0 mM
Cn1nnc(N)n1 [LC126II, 2-methyl-2H-tetrazole-5-amine] | – | – | – | – | – | – | – | – | – | – | – | – | – | – | – | – | – | – | – | – | IC50 [6]: > 10000 nM; IC50 ([7]; Plasmodium falciparum, DD2, read-out: P. falciparum IC50 ± SD, Dd2): > 10000 nM; antiplasmodial activity of building blocks in words ([7]; tested separately, Dd2 and 3D7 (Additional file 1)): devoid of antiplasmodial activity

— publication PMC5883364 (Malaria Journal, 2018)
